Values of other authors in PMC7938295 (Biomedical Reports, 2021).

Molecular target: DPP4 (Homo sapiens, UniProt P27487)
Conditions: read-out: DPP4 Ki

Sequence of DPP4 (P27487 whole entry): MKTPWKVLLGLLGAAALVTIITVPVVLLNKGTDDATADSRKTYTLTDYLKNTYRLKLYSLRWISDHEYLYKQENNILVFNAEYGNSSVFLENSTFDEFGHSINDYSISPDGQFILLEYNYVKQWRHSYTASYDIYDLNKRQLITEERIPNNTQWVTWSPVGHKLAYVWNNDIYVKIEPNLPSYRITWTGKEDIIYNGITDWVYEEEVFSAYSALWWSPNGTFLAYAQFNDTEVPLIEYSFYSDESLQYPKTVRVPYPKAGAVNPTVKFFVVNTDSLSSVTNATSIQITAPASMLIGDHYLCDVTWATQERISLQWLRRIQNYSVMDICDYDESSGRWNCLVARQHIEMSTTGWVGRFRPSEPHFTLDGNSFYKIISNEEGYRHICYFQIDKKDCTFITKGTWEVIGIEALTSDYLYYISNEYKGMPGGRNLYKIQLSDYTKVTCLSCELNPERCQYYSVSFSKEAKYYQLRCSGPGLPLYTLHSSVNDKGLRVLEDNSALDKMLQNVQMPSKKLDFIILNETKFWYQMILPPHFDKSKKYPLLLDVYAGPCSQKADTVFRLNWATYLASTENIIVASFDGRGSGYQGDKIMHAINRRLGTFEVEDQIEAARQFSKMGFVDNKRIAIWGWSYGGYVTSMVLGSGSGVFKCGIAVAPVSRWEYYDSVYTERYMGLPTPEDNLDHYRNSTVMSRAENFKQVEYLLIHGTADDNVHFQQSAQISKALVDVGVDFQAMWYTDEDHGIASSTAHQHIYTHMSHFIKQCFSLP

In the case of `O=c1cc(-c2ccccc2)oc2ccccc12` [flavone], the Ki is given as 18.6 µM.
